In PMC9240326, “BacPROTACs mediate targeted protein degradation in bacteria” (Cell, 2022):
Where a SMILES comes first, the peptide text is derived from it. [ ]: non-standard residue; d: D form. Phe(βR-OMe) = CO[C@H](c1ccccc1)[C@H](N)C(=O)O; NMeL = CN[C@@H](CC(C)C)C(=O)O; NMeK = CN[C@@H](CCCCN)C(=O)O

Key:
[1] = target: B. subtilis ClpCP protease (Bacillus subtilis, UniProt P37571); type: biochemical
[2] = Solubility in aqueous solutions (remark in ITC method); type: physicochemical
[3] = target: ClpC1NTD (Mycolicibacterium smegmatis, UniProt A0R574); assay: biochemical; type: binding, Mycobacterium smegmatis
Chain of ClpC1NTD (A0R574 1-148 limits assumed): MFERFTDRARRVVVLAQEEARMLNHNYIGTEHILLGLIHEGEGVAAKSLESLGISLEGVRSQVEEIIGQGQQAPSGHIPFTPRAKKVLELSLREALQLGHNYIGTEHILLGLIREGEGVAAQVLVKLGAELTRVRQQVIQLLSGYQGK

[4] = target: BRDTBD1 (Homo sapiens, UniProt Q58F21); assay: Wes analysis of BRDTBD1 levels in M. smegmatis; type: cell-based; conditions: 30 min of incubation, relative to DMSO

Chain of B. subtilis ClpCP protease (P80244 whole entry): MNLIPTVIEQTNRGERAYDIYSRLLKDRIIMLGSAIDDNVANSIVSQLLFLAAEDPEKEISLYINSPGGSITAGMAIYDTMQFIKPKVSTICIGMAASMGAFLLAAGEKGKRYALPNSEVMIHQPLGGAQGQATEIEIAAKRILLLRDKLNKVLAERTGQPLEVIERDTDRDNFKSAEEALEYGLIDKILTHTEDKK
Chain of B. subtilis ClpCP protease (P37571 whole entry): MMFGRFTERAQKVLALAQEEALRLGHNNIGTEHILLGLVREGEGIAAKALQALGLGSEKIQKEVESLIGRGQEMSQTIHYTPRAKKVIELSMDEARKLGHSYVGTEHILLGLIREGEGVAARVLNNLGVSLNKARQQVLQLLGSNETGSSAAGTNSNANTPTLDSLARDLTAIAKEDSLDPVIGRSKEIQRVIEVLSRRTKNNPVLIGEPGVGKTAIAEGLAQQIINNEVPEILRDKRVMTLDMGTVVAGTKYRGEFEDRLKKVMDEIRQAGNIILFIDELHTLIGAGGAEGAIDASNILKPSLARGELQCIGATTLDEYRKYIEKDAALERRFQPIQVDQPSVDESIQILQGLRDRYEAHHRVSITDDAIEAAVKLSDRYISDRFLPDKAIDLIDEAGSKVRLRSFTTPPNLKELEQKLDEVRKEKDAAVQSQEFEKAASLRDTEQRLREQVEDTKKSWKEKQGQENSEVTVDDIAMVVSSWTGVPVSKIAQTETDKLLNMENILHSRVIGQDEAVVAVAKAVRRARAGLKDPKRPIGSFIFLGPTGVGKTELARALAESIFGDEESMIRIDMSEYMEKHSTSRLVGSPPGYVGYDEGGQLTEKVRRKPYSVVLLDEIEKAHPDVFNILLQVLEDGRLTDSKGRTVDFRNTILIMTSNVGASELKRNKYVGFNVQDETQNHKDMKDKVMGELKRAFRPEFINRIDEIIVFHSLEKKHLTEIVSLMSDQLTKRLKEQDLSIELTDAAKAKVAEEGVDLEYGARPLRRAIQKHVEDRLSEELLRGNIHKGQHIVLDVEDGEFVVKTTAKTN

Structure (SMILES) | mSA-Kre degradation by ClpCP, BacPROTAC-1 analogs [1] | Solubility in aqueous solutions [2] | Kd [3] [µM] | BRDTBD1 levels in M. smegmatis (Wes) [4]
CC(=O)NC(CCCNC(=N)N)C(=O)NCCOCCOCCC(=O)NCCOCCOCCC(=O)NCCOCCOCCC(=O)NC(CCCCNC(=O)CCCCC1SCC2NC(=O)NC21)C(N)=O (stereo not shown) [BacPROTAC-1c] | did not induce substrate degradation | – | – | –
CC[C@H](C)[C@@H]1NC(=O)[C@H](CC(C)C)N(C)C(=O)[C@H](C(C)C)NC(=O)[C@H]([C@H](OC)c2ccccc2)NC(=O)[C@H](C)NC(=O)[C@H](CCCCN)N(C)C(=O)[C@H](Cc2c[nH]c3ccccc23)NC1=O [sCym-1] (cyclo(W[NMeK]A[Phe(βR-OMe)]V[NMeL]I)) | – | low solubility | 0.81 | did not significantly alter BRDTBD1 levels
